Test results from EP4014964A1, “TOPICAL FORMULATION” (Almirall S.A., priority 2020, dated 2022).

Test system: immortalized human sebocyte cell line, SZ95
Assay: In vitro assay of inhibition of Lipid Synthesis
Type: cell-based
Settings: SZ95 cells, lipid synthesis induced by 75µM AA, 48h, neutral lipids measured with AdipoRed fluorescence
Procedure: To evaluate the inhibition of lipid synthesis, the immortalized human sebocyte cell line, SZ95 (stablished by Zouboulis, C.C. et al J Invest Dermatol 1999; 113: 1011-20), was treated with arachidonic acid (AA) in presence or absence of compound. Lipids were detected by using a lipid sensing fluorophore.
10k cells were plated in 384 well microtiter plates and incubated at 37 °C and 5% CO2 in DMEM/F12 supplemented with 10% FBS, 1.25ng/ml of rhEGF and GA-1000, using the MicroClime Lids from Labcyte to reduce the edge effect, before of compound and stimulus addition.
After 24h, compounds were dissolved in DMSO 100%. Then the stocks were serial diluted 1/3 in DMSO 100%, and this battery of solutions were diluted 1/10 in culture medium. Later, compounds dissolved in culture media were added over cells, diluting the solutions prepared 1/40 in the final volume of the assay. Then, cells and compounds were preincubated for 30 min at 37 °C and 5% CO2. After this prior incubation, the lipid synthesis was induced by 75µM of AA final solution, preparing a solution 10x in culture media containing a 1.25% of DMSO. Finally, SZ95 treated were incubated for 48h at 37°C and 5% CO2.
Neutral lipids were measured using AdipoRedTM, purchased from Lonza. To do that, cells were washed with PBS and incubated with a solution of AdipoRedTM (final dilution 1/80 in PBS) for 30 min at room temperature. After the staining process, the fluorescence intensity (FI) was quantified using a fluorescence plate reader (excitation 485 nm; emission 535).
Activity of compounds was calculated as % of inhibition considering the maximal fluorescence for AA-stimulated cells and the minimum fluorescence for unstimulated cells as controls.

For `CCCCCCCc1ccc(-c2c[nH]c(C(=O)O)c2F)c(Cl)c1` [Example 1, 4-(2-Chloro-4-heptylphenyl)-3-fluoro-1H-pyrrole-2-carboxylic acid], the IC50 (Homo sapiens) was < 200 nM.

For `CCCCCCCc1ccc(-c2c[nH]c(C(=O)O)c2F)c(CC)c1` [Example 2, 4-(2-Ethyl-4-heptylphenyl)-3-fluoro-1H-pyrrole-2-carboxylic acid], the IC50 (Homo sapiens) was < 200 nM.

`CCCCCCCCCCCCCc1c[nH]c(C(=O)O)c1F` [Example 3, 3-Fluoro-4-tridecyl-1H-pyrrole-2-carboxylic acid] was tested, and the IC50 (Homo sapiens) was < 50 nM.

For `CCCCCCCCC1CCC(c2c[nH]c(C(=O)O)c2F)CC1` (stereo not shown) [Example 4, 3-Fluoro-4-((1r,4s)-4-octylcyclohexyl)-1H-pyrrole-2-carboxylic acid], the IC50 was < 200 nM.
